{"source": "patent US20100016445A1", "about": "“TRANSDERMAL DIETHYLSTILBESTROL FOR TREATING PROSTATE CANCER” (Oregon Health and Science University, priority 2006, published 2010)", "key": {"[1]": {"assay": "Mouse Experiment #1: DES in mouse plasma by TSQ-ESI-MS after i.p. injection or topical DES cream", "assay_type": "in vivo", "settings": "ip, 0.75 mg, DES i.p. 0.75 mg, read-out: DES Amount in plasma", "protocol": "375 mg of diethylstilbestrol (DES; Sigma, cat #D4628) was then added to 2.5 ml of the lecithin solution and combined with 10 ml of the 20% poloxamer solution. This combination was stirred overnight at room temperature. The result was a viscous 3% (g/ml) DES cream, of which 0.25 ml was applied to each mouse resulting in a topical dose of approximately 7.5 mg.\n100 μl samples of commercial BALB/C mouse plasma containing the following concentrations of DES were used to produce a standard curve: 0, 0.01, 0.02, 0.05, 0.08, 0.1, 0.2, 0.5, 0.8, 1.0 (nanograms of DES per milliliter of mouse plasma). Each plasma standard was spiked with 10 μl of d8-DES (Isotech, cat #614289) used as an internal standard. Prior to the next step, samples taken from live mice were exposed to 5 μl of β-glucuronidase (Sigma, cat #G7017) and incubated at 37° C. for 70 minutes at 100 rpm. The enzymatic reaction was necessary in order to separate the DES molecule from any conjugated glucoronic acid that may be present. Following this incubation, 10 μl of 6M perchloric acid and 50 μl of acetonitrile were added. Each sample was then mixed for 2 minutes, following by centrifugation at 17,000×g for 5 minutes at 5° C. The supernatant was combined with 40 μl of 0.75M potassium carbonate and mixed for 30 seconds. Precipitated potassium perchlorate was removed by centrifugation at 17,000×g for 5 minutes at 5° C. […]"}, "[2]": {"assay": "Mouse Experiment #2: DES in mouse plasma by TSQ-ESI-MS after three cream applications or i.p. injection", "assay_type": "in vivo, athymic nude mice", "settings": "athymic nude, ip, DES i.p. 0.75 mg, β-glucuronidase, read-out: DES Amount in plasma", "protocol": "100 μl samples of commercial BALB/C mouse plasma containing the following concentrations of DES were used to produce a standard curve: 0, 0.01, 0.02, 0.05, 0.08, 0.1, 0.2, 0.5, 0.8, 1.0 (nanograms of DES per milliliter of mouse plasma). Each plasma standard was spiked with 10 μl of d8-DES (Isotech, cat #614289) used as an internal standard. Prior to the next step, samples taken from live mice were exposed to 5 μl of β-glucuronidase (Sigma, cat #G7017) and incubated at 37° C. for 70 minutes at 100 rpm. The enzymatic reaction was necessary in order to separate the DES molecule from any conjugated glucoronic acid that may be present. Following this incubation, 10 μl of 6M perchloric acid and 50 μl of acetonitrile were added. Each sample was then mixed for 2 minutes, following by centrifugation at 17,000×g for 5 minutes at 5° C. The supernatant was combined with 40 μl of 0.75M potassium carbonate and mixed for 30 seconds. Precipitated potassium perchlorate was removed by centrifugation at 17,000×g for 5 minutes at 5° C. The resulting supernatant was subjected to TSQ-ESI-MS. The chromatography conditions were the following: 25 μl metal loop, 10 μl no waste injection; oven 22° C.; flow rate 0.3 ml/min; solvents: A=water, C=MeOH; column: Hypersil Gold 100×2.1 mm, 5 μm bore (Thermo Scientific, catalog #25005-102130; with guard column). […]"}, "[3]": {"tested_on": "dihydrotestosterone and testosterone", "assay": "Mouse Experiment #2: radioimmunoassay for androgen suppression by DES", "assay_type": "in vivo, athymic nude mice", "settings": "DES i.p., 1 hour (used as baseline)", "protocol": "Six athymic nude mice (Harlan) were used for this experiment. As above, mouse 1 received a 100 μl injection of a 7.5% DES solution in DMSO, for a total dose of […]. Mice 2, 3, 4, 5, and 6 received three applications of 0%, 0.5%, 1%, 2%, and 3% DES cream at 24 h intervals. 24 h following the final cream application and 1 h post-injection, blood was taken from each mouse by cardiac puncture. Each cardiac puncture sample was combined with 0.1 ml sodium heparin (50 mg/ml; Sigma, cat #). Blood plasma was isolated from each sample by centrifugation at 4,000 rpm for 15 minutes. This yielded approximately 0.2 to 0.4 ml of plasma from each sample.\nA radioimmunoassay that detects both dihydrotestosterone and testosterone was used to assess androgen suppression by DES."}, "[4]": {"settings": "patients receiving 5 mg of DES per day, oral; cited from earlier work"}, "hot flashes": {"tested_on": "hot flashes", "settings": "DES 1 mg per day, cited from earlier work"}, "[5]": {"settings": "oral, versus conventional ADT, non-metastatic prostate cancer; cited from earlier work"}, "coagulation factors": {"tested_on": "coagulation factors", "settings": "in vivo; cited from earlier work"}, "[6]": {"settings": "cited from earlier work"}, "[7]": {"settings": "PEP group, 915 men, median follow-up 27 months"}}}
{"molecule": "CCC(=C(CC)c1ccc(O)cc1)c1ccc(O)cc1", "note": "[DES, 4-[4-(4-hydroxyphenyl)hex-3-en-3-yl]phenol]", "values": [{"measurement": "concentration at 1 h", "setting": "[1]; no β-glucuronidase", "result": 0.089, "unit": "ng/mL"}, {"measurement": "concentration at 1 h", "setting": "[1]; β-glucuronidase sample prep", "result": 1.48, "unit": "ng/mL"}, {"measurement": "concentration at 1 h", "setting": "[2]", "result": 1.93, "unit": "ng/mL"}, {"measurement": "[testosterone]", "setting": "[3]", "result": 143, "unit": "pg/mlI"}, {"measurement": "increase in non-cancer related deaths, mostly cardiovascular", "setting": "[4]", "result": 36, "unit": "%"}, {"measurement": "patients with significant improvement of hot flashes", "setting": "hot flashes; remaining patients", "result": 14, "unit": "%"}, {"measurement": "patients with resolution of hot flashes", "setting": "hot flashes", "result": 86, "unit": "%"}, {"measurement": "urinary N-telopeptide levels (marker for bone turnover)", "setting": "[5]", "result": "significantly lower"}]}
{"molecule": "C[C@]12CC[C@@H]3c4ccc(O)cc4CC[C@H]3[C@@H]1CC[C@@H]2O", "note": "[transdermal estradiol, estradiol]", "values": [{"measurement": "F1.2", "setting": "coagulation factors", "result": "did not affect"}]}
{"molecule": "polyoestradiol phosphate [PEP]", "values": [{"measurement": "non-fatal cardiovascular events: heart failure", "setting": "[6]; [7]", "result": 4.4, "unit": "%"}, {"measurement": "non-fatal cardiovascular events: ischemic heart disease", "setting": "[6]; [7]", "result": 3.7, "unit": "%"}, {"measurement": "cardiovascular or thromboembolic complications", "setting": "[6]; phase I, intramuscular, 12 patients, median 12.9 months", "result": "did not cause any"}, {"measurement": "Antithrombin III activity", "setting": "coagulation factors", "result": "significant decrease"}, {"measurement": "Factor VII", "setting": "coagulation factors", "result": "no change"}, {"measurement": "Fibrinogen", "setting": "coagulation factors", "result": "unchanged"}]}
